Data from PubChem BioAssay (NCI).
“And” between values parts separate entries of the source, which are not always exact repeats. Identical values can stand only once.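 Five concentrations, 48 hours, 96-well plates. GI50 = concentration required for 50% inhibition of growth. TGI denotes the concentration required for complete inhibition of growth.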

What follows are molecules tested on SF-295 CNS (assay: NCI anticancer screen, dose series, 48 h).

SMILES	TGI [µM]	GI50 [µM]
CC(C)(C)c1ccc2c(c1)S(=O)(=O)Nc1ccc(Cl)cc1NS(=O)(=O)c1cc(C(C)(C)C)ccc1OCCOCCOCCO2	> 100	
O=C(/C(=C\c1c(-c2ccccc2)[nH]c2ccccc12)S(=O)(=O)c1ccccc1)c1ccccc1	> 100	3.47
COc1ccc(C(=O)c2cc(OC)c(OC)c(OC)c2)cc1OC	4.27	
O=C1c2ccccc2-c2c1c1ccccc1c(=O)n2CCN1CCNCC1	3.05	0.552
COc1c(C)n(CCO)ccc1=O	> 100	
Nc1c(-c2ccccc2-c2c(N)[n+]([O-])c3ccccc3[n+]2[O-])[n+]([O-])c2ccccc2[n+]1[O-]	> 100	
CN(C)CCNCCN	> 100	
COC(=O)c1cc2c(o1)-c1nccc3c1c(nc1ccccc13)C2=O	18.3	4.51
O=C(c1ccco1)c1c(C(F)(F)F)n([O-])c2ccc(C(F)(F)F)cc2[n+]1=O	1.71	0.626
CCN1c2ccccc2-c2c3c1cc(C)cc3c1ccccc1[n+]2CC	3.21	
CC1=C(C#N)C(=O)CC(c2ccc(Cl)cc2)N(C)N1 (stereo not given)	> 100	
Nc1nc(-c2ccc(Cl)c([N+](=O)[O-])c2)cs1	> 100	
CC1(C)CN=C(NN=C(/C=C/c2ccc(C(F)(F)F)cc2)/C=C/c2ccc(C(F)(F)F)cc2)NC1	3.28	1.72
COc1cc(/C=C\c2cc(OC)c(OC)c(OC)c2)cc(N/C=C\C(=O)c2c[nH]c3ccccc23)c1OC	22.9	7.94
Cn1c(=O)c2c(nc(C(=N)SCC(=O)O)n2C)n(C)c1=O	> 100	
CC1CC(O)C(=O)C(O[C@@H]2C[C@@H]3CC[C@@H]4[C@H](CC[C@]5(C)C(C6=CC(=O)OC6)CC[C@]45O)[C@@]3(C=O)C[C@H]2O)O1 (stereo not given in full)	0.149	
CCCC(=O)C1=C(O)C(Cc2c(O)c(C)c(O)c(C(=O)CCC)c2O)=C(O)C(C)(C)C1=O	> 50	
Cc1ccccc1C1=[N+]([O-])c2ccc(Cl)cc2C1=O	29.1	
c1coc(-c2c3ccc(=[N+]4CCCCC4)cc-3oc3cc(N4CCCCC4)ccc23)c1	0.417	0.0937
Cc1[nH]c2ccccc2c1C1Cc2ccccc2N1C(=O)C#Cc1ccc([N+](=O)[O-])cc1 (stereo not given)	> 100	
CCC/C=C/C=C/C1CC(O)C(O)C(=O)C1CO (stereo not given)	> 100	
Cn1c(=O)nc2n(-c3cc(C(F)(F)F)cc(C(F)(F)F)c3)c3ccccc3nc-2c1=O	> 100	

These molecules were tested on OVCAR-4 ovarian (assay: NCI anticancer screen, dose series, 48 h).

SMILES	GI50	TGI [µM]
O=C(O)c1cccc(COc2ccc([N+](=O)[O-])cc2Cl)c1	> 100 µM	> 100
COC(=O)C1=COC(C)C2CN3CCc4c([nH]c5ccccc45)C3CC12 (stereo not given)	25.4 µM and > 100 µM	> 100
CCC(C)(O)c1cnc(CC(C)C)c(=O)n1O (stereo not given)		> 100
CCC1CN2CCc3cc(OC)c(OC)cc3C2CC1CC1c2cc(OC)c(OC)cc2CCN1C(=O)C1CCCN1 (stereo not given)		87.9
CC(C(=O)c1ccc(Cl)cc1)/C(=N/NC(=O)NN)C(=O)Nc1cccc(C(F)(F)F)c1 (stereo not given)		> 100
CCOP(=O)(OCC)C(C(=O)OC)C(=O)C(=O)Nc1ccc(Cl)cc1Cl (stereo not given)		> 100
Cn1cc(-c2csc(-c3cn(CCCCN4CCCCC4)c4ccccc34)n2)c2cccnc21	1.96 µM	4.04
C=CC(=O)N1CN(C(=O)C=C)CN(C(=O)C=C)C1	5.06 µM	21.2
CC(C)(C)c1ccc2c(c1)S(=O)(=O)Nc1ccc(Cl)cc1NS(=O)(=O)c1cc(C(C)(C)C)ccc1OCCOCCOCCO2		28
O=C(/C(=C\c1c(-c2ccccc2)[nH]c2ccccc12)S(=O)(=O)c1ccccc1)c1ccccc1	6.58 µM	> 100
O=C1c2ccccc2-c2c1c1ccccc1c(=O)n2CCN1CCNCC1	10.4 µM	33
COc1c(C)n(CCO)ccc1=O		> 100
Nc1c(-c2ccccc2-c2c(N)[n+]([O-])c3ccccc3[n+]2[O-])[n+]([O-])c2ccccc2[n+]1[O-]		> 100
CN(C)CCNCCN		> 100
CCN1c2ccccc2-c2c3c1cc(C)cc3c1ccccc1[n+]2CC		5.57
CC(=O)N1CCN(c2ccc(OCC3COC(Cn4ccnc4)(c4ccc(Cl)cc4Cl)O3)cc2)CC1 (stereo not given)		> 100
O=C(Cc1nc2c3c(ccc2[nH]c1=O)C(=O)c1ccccc1C3=O)C(=O)Nc1ccccc1[N+](=O)[O-]		32.4
CC1=C(C#N)C(=O)CC(c2ccc(Cl)cc2)N(C)N1 (stereo not given)		> 100
Nc1nc(-c2ccc(Cl)c([N+](=O)[O-])c2)cs1		> 100
CC1(C)CN=C(NN=C(/C=C/c2ccc(C(F)(F)F)cc2)/C=C/c2ccc(C(F)(F)F)cc2)NC1	1.29 µM	2.72
Cn1c(=O)c2c(nc(C(=N)SCC(=O)O)n2C)n(C)c1=O		85.6
COc1ccc(-c2nn(-c3cccc(Cl)c3)cc2-c2cc(-c3ccccc3)[nH]c(=O)c2C#N)cc1	1.25 µM	5.34
CC(C)(C)[Si](C)(C)OC1[C@@H](CNC(=O)NC(=O)CCl)O[C@@H](n2cnc3c(N)ncnc32)[C@H]1O[Si](C)(C)C(C)(C)C (stereo not given in full)	0.924 µM	2.51
NC(=O)C(=O)CC(=O)c1ccccc1NC1=CC(=O)C(=O)c2ccccc21		> 100
CCCC(=O)C1=C(O)C(Cc2c(O)c(C)c(O)c(C(=O)CCC)c2O)=C(O)C(C)(C)C1=O		> 50
c1coc(-c2c3ccc(=[N+]4CCCCC4)cc-3oc3cc(N4CCCCC4)ccc23)c1	0.0707 µM	0.883
Cc1[nH]c2ccccc2c1C1Cc2ccccc2N1C(=O)C#Cc1ccc([N+](=O)[O-])cc1 (stereo not given)		> 100
CCC/C=C/C=C/C1CC(O)C(O)C(=O)C1CO (stereo not given)		> 100
Cn1c(=O)nc2n(-c3cc(C(F)(F)F)cc(C(F)(F)F)c3)c3ccccc3nc-2c1=O		> 100

What follows are molecules tested on NCI-H522 lung (assay: NCI anticancer screen, dose series, 48 h).

SMILES	GI50	TGI
O=C(O)c1cccc(COc2ccc([N+](=O)[O-])cc2Cl)c1	18.4 µM	93 µM
COC(=O)C1=COC(C)C2CN3CCc4c([nH]c5ccccc45)C3CC12 (stereo not given)	23.1 µM and 91.2 µM	78.5 µM and > 100 µM
CCC1CN2CCc3cc(OC)c(OC)cc3C2CC1CC1c2cc(OC)c(OC)cc2CCN1C(=O)C1CCCN1 (stereo not given)		35.3 µM
COc1cc2c(/C=N\N=C(N)N)c[nH]c2cc1C	17.3 µM	32.9 µM
CCOP(=O)(OCC)C(C(=O)OC)C(=O)C(=O)Nc1ccc(Cl)cc1Cl (stereo not given)		> 100 µM
C=CC(=O)N1CN(C(=O)C=C)CN(C(=O)C=C)C1	1.65 µM	3.51 µM
O=C(/C(=C\c1c(-c2ccccc2)[nH]c2ccccc12)S(=O)(=O)c1ccccc1)c1ccccc1	91.8 µM	> 100 µM
COc1ccc(C(=O)c2cc(OC)c(OC)c(OC)c2)cc1OC		12.3 µM
O=C1c2ccccc2-c2c1c1ccccc1c(=O)n2CCN1CCNCC1	3.06 µM	19.3 µM
COc1c(C)n(CCO)ccc1=O		> 100 µM
Nc1c(-c2ccccc2-c2c(N)[n+]([O-])c3ccccc3[n+]2[O-])[n+]([O-])c2ccccc2[n+]1[O-]		6.87 µM
CN(C)CCNCCN		> 100 µM
O=C(c1ccco1)c1c(C(F)(F)F)n([O-])c2ccc(C(F)(F)F)cc2[n+]1=O	0.462 µM	1.16 µM
CCN1c2ccccc2-c2c3c1cc(C)cc3c1ccccc1[n+]2CC		3.52 µM
CC(=O)N1CCN(c2ccc(OCC3COC(Cn4ccnc4)(c4ccc(Cl)cc4Cl)O3)cc2)CC1 (stereo not given)		99.7 µM
O=C(Cc1nc2c3c(ccc2[nH]c1=O)C(=O)c1ccccc1C3=O)C(=O)Nc1ccccc1[N+](=O)[O-]		18 µM
CC1=C(C#N)C(=O)CC(c2ccc(Cl)cc2)N(C)N1 (stereo not given)		> 100 µM
CC1(C)CN=C(NN=C(/C=C/c2ccc(C(F)(F)F)cc2)/C=C/c2ccc(C(F)(F)F)cc2)NC1	1.25 µM	2.57 µM
COc1cc(/C=C\c2cc(OC)c(OC)c(OC)c2)cc(N/C=C\C(=O)c2c[nH]c3ccccc23)c1OC	1.76 µM	3.7 µM
Cn1c(=O)c2c(nc(C(=N)SCC(=O)O)n2C)n(C)c1=O		> 100 µM
COc1ccc(-c2nn(-c3cccc(Cl)c3)cc2-c2cc(-c3ccccc3)[nH]c(=O)c2C#N)cc1	3.59 µM	20.8 µM
CC(C)(C)[Si](C)(C)OC1[C@@H](CNC(=O)NC(=O)CCl)O[C@@H](n2cnc3c(N)ncnc32)[C@H]1O[Si](C)(C)C(C)(C)C (stereo not given in full)	0.718 µM	1.61 µM
NC(=O)C(=O)CC(=O)c1ccccc1NC1=CC(=O)C(=O)c2ccccc21		> 100 µM
CC1CC(O)C(=O)C(O[C@@H]2C[C@@H]3CC[C@@H]4[C@H](CC[C@]5(C)C(C6=CC(=O)OC6)CC[C@]45O)[C@@]3(C=O)C[C@H]2O)O1 (stereo not given in full)		< 0.0274 µM
Cc1ccccc1C1=[N+]([O-])c2ccc(Cl)cc2C1=O		23.9 µM
CCC/C=C/C=C/C1CC(O)C(O)C(=O)C1CO (stereo not given)		> 100 µM
